These results are taken from the RepoRT retention time repository (doi:10.1016/j.jchromb.2020.122105).

What all share (conditions): stereoisomer not certain
Data set [1] in a line: RP, Waters CORTECS T3, 100 × 2.1 mm, 2.7 µm, 0.3 mL/min, estimated dead time 0.73 min; A: water + 0.1% formic acid, pH 3; B: methanol + 0.1% formic acid, pH 3; gradient (min/%B) 0/5 5/5 25/95 25.1/100 35/100 35.1/5 45/5.
Data set [2] is described as follows: RP, Waters CORTECS T3, 100 × 2.1 mm, 2.7 µm, 0.2 mL/min, estimated dead time 1.1 min; A: water + 0.1% formic acid, pH 3; B: methanol + 0.1% formic acid, pH 3; gradient (min/%B) 0/0 1/0 6/5 30/100 35/100 35.1/0 40/0.
The nature of data set [3]: HILIC, Merck SeQuant ZIC-HILIC, 150 × 2.1 mm, 5 µm, 0.75 mL/min, estimated dead time 0.44 min; A: water + 10 mM ammonium formate, pH 6; B: 5% water + 95% acetonitrile + 10 mM ammonium formate, pH 6; gradient (min/%B) 0/95 5/95 20/57 25/57 30/95 40/95.
Data set [4] is described as follows: RP, Waters ACQUITY UPLC BEH C18, 100 × 2.1 mm, 1.7 µm, 0.1 mL/min, estimated dead time 2.2 min; A: water + 0.1% formic acid, pH 3; B: methanol + 0.1% formic acid, pH 3; gradient (min/%B) 0/5 5/5 25/100 30/100 30.1/5 35/5.
A short description of data set [5]: RP, Waters ACQUITY UPLC BEH C18, 100 × 2.1 mm, 1.7 µm, 0.1 mL/min, estimated dead time 2.2 min; A: water + 0.1% formic acid, pH 3; B: methanol + 0.1% formic acid, pH 3; gradient (min/%B) 0/5 5/5 25/95 25.1/100 35/100 35.1/5 45/5.
Data set [6] is described as follows: RP, Waters CORTECS T3, 100 × 2.1 mm, 2.7 µm, 0.15 mL/min, estimated dead time 1.5 min; A: water + 0.1% formic acid, pH 3; B: methanol + 0.1% formic acid, pH 3; gradient (min/%B) 0/0 1/0 6/5 30/100 35/100 35.1/0 40/0.
Data set [7] in a line: RP, Waters CORTECS T3, 100 × 2.1 mm, 2.7 µm, 0.3 mL/min, estimated dead time 0.73 min; A: water + 0.1% formic acid, pH 3; B: methanol + 0.1% formic acid, pH 3; gradient (min/%B) 0/0 5/0 25/100 30/100 30.1/0 35/0.
A short description of data set [8]: RP, Waters ACQUITY UPLC BEH C18, 100 × 2.1 mm, 1.7 µm, 0.1 mL/min, estimated dead time 2.2 min; A: water + 0.045% formic acid + 0.11% ammonium hydroxide, pH 7; B: methanol; gradient (min/%B) 0/5 5/5 25/95 25.1/100 35/100 35.1/5 45/5.
Data set [9] in a line: RP, Waters CORTECS T3, 100 × 2.1 mm, 2.7 µm, 0.2 mL/min, estimated dead time 1.1 min; A: water + 0.045% formic acid + 0.11% ammonium hydroxide, pH 7; B: methanol; gradient (min/%B) 0/5 5/5 25/95 25.1/100 35/100 35.1/5 45/5.
The nature of data set [10]: HILIC, Waters XBridge BEH Amide, 100 × 2.1 mm, 2.5 µm, 0.5 mL/min, estimated dead time 0.44 min; A: water + 0.1% acetic acid + 10 mM ammonium acetate, pH 4; B: 5% water + 95% acetonitrile + 0.1% acetic acid + 10 mM ammonium acetate, pH 4; gradient (min/%B) 0/95 5/95 20/57 25/57 30/95 40/95.
Data set [11] in a line: RP, Waters CORTECS T3, 100 × 2.1 mm, 2.7 µm, 0.3 mL/min, estimated dead time 0.73 min; A: water + 0.1% formic acid, pH 3; B: methanol + 0.1% formic acid, pH 3; gradient (min/%B) 0/0 1/0 6/5 30/100 35/100 35.1/0 40/0.
The nature of data set [12]: RP, Waters CORTECS T3, 100 × 2.1 mm, 2.7 µm, 0.3 mL/min, estimated dead time 0.73 min; A: water + 0.1% formic acid, pH 3; B: methanol + 0.1% formic acid, pH 3; gradient (min/%B) 0/5 5/5 25/100 30/100 30.1/5 35/5.
The nature of data set [13]: RP, Waters CORTECS T3, 100 × 2.1 mm, 2.7 µm, 0.1 mL/min, estimated dead time 2.2 min; A: water + 0.1% formic acid, pH 3; B: methanol + 0.1% formic acid, pH 3; gradient (min/%B) 0/0 1/0 6/5 30/100 35/100 35.1/0 40/0.
The nature of data set [14]: RP, Waters CORTECS T3, 100 × 2.1 mm, 2.7 µm, 0.1 mL/min, estimated dead time 2.2 min; A: water + 0.1% formic acid, pH 3; B: methanol + 0.1% formic acid, pH 3; gradient (min/%B) 0/5 5/5 25/95 25.1/100 35/100 35.1/5 45/5.
A short description of data set [15]: RP, Thermo Scientific Hypercarb, 150 × 2.1 mm, 5 µm, 0.1 mL/min, estimated dead time 3.3 min; A: water + 0.1% formic acid, pH 3; B: methanol + 0.1% formic acid, pH 3; gradient (min/%B) 0/5 5/5 20/100 35/100 35.1/5 45/5.
The nature of data set [16]: RP, Waters ACQUITY UPLC BEH C18, 100 × 2.1 mm, 1.7 µm, 0.1 mL/min, estimated dead time 2.2 min; A: water + 0.1% formic acid, pH 3; B: methanol + 0.1% formic acid, pH 3; gradient (min/%B) 0/5 5/5 25/95 25.1/100 35/100 35.1/5 45/5. The source holds these as a separate data set.
The nature of data set [17]: HILIC, Merck SeQuant ZIC-HILIC, 150 × 2.1 mm, 5 µm, 0.75 mL/min, estimated dead time 0.44 min; A: water + 0.1% acetic acid + 10 mM ammonium acetate, pH 4; B: 5% water + 95% acetonitrile + 0.1% acetic acid + 10 mM ammonium acetate, pH 4; gradient (min/%B) 0/95 5/95 20/57 25/57 30/95 40/95.
Data set [18] is described as follows: RP, Waters ACQUITY UPLC BEH C18, 100 × 2.1 mm, 1.7 µm, 0.2 mL/min, estimated dead time 1.1 min; A: water + 0.025% formic acid + 20 mM ammonium acetate + 0.055% ammonium hydroxide, pH 7; B: methanol; gradient (min/%B) 0/5 5/5 25/100 30/100 30.1/5 35/5.
Data set [19] in a line: RP, Waters CORTECS T3, 100 × 2.1 mm, 2.7 µm, 0.25 mL/min, estimated dead time 0.88 min; A: water + 0.1% formic acid, pH 3; B: methanol + 0.1% formic acid, pH 3; gradient (min/%B) 0/0 1/0 6/5 30/100 35/100 35.1/0 40/0.
A short description of data set [20]: RP, Waters ACQUITY UPLC BEH C18, 100 × 2.1 mm, 1.7 µm, 0.2 mL/min, estimated dead time 1.1 min; A: water + 0.1% formic acid, pH 3; B: methanol + 0.1% formic acid, pH 3; gradient (min/%B) 0/5 5/5 25/100 30/100 30.1/5 35/5.
Data set [21] can be described thus: RP, Waters CORTECS T3, 100 × 2.1 mm, 2.7 µm, 0.25 mL/min, estimated dead time 0.88 min; A: water + 0.1% formic acid, pH 3; B: methanol + 0.1% formic acid, pH 3; gradient (min/%B) 0/5 5/5 25/95 25.1/100 35/100 35.1/5 45/5.
Data set [22] in a line: RP, Waters ACQUITY UPLC BEH C18, 100 × 2.1 mm, 1.7 µm, 0.1 mL/min, estimated dead time 2.2 min; A: water + 0.1% formic acid, pH 3; B: methanol + 0.1% formic acid, pH 3; gradient (min/%B) 0/5 5/5 25/95 25.1/100 35/100 35.1/5 45/5. The source holds these as a separate data set.
A short description of data set [23]: RP, Waters CORTECS T3, 100 × 2.1 mm, 2.7 µm, 0.3 mL/min, estimated dead time 0.73 min; A: water + 0.1% formic acid, pH 3; B: methanol + 0.1% formic acid, pH 3; gradient (min/%B) 0/0 1/0 6/5 30/100 35/100 35.1/0 40/0. This is another data set of the same source.
Data set [24] in a line: RP, Waters ACQUITY UPLC BEH C18, 100 × 2.1 mm, 1.7 µm, 0.2 mL/min, estimated dead time 1.1 min; A: water + 0.025% formic acid + 20 mM ammonium acetate + 0.055% ammonium hydroxide, pH 7; B: methanol; gradient (min/%B) 0/5 5/5 25/100 30/100 30.1/5 35/5. The source holds these as a separate data set.
The nature of data set [25]: RP, Waters CORTECS T3, 100 × 2.1 mm, 2.7 µm, 0.2 mL/min, estimated dead time 1.1 min; A: water + 0.1% formic acid, pH 3; B: methanol + 0.1% formic acid, pH 3; gradient (min/%B) 0/0 1/0 6/5 30/100 35/100 35.1/0 40/0. The source holds these as a separate data set.
Data set [26] can be described thus: RP, Waters CORTECS T3, 100 × 2.1 mm, 2.7 µm, 0.3 mL/min, estimated dead time 0.73 min; A: water + 0.1% formic acid, pH 3; B: methanol + 0.1% formic acid, pH 3; gradient (min/%B) 0/0 5/0 25/100 30/100 30.1/0 35/0. The source holds these as a separate data set.
Data set [27] is described as follows: RP, Waters CORTECS T3, 100 × 2.1 mm, 2.7 µm, 0.2 mL/min, estimated dead time 1.1 min; A: water + 0.1% formic acid, pH 3; B: methanol + 0.1% formic acid, pH 3; gradient (min/%B) 0/5 5/5 25/95 25.1/100 35/100 35.1/5 45/5.

`Cn1cnc2c(ncn2C2OC(CO)C(O)C2O)c1=N` (stereo not drawn) [1-METHYLADENOSINE]: the LC retention time in data set [1] is 4.96 min; in data set [2], 9.42 min; in data set [3], 1.56 min; in data set [4] it was 10.5 min; in [5], 10.6 min; in [6], 10.7 min. For the same molecule, the LC retention time in data set [7] was 8.57 min; in [8] it was 13.5 min; in data set [9], 10.7 min; in [10] it was 2.22 min; in data set [11], 8.04 min; in data set [12], 5.02 min. Further, the LC retention time in data set [13] is 7.08 min; in data set [14], 10.9 min; in data set [15] it was 21.8 min; in data set [16], 2.66 min; in data set [17], 1.51 min; in [18] it was 10.5 min. Also, in data set [19], the LC retention time is 8.69 min.

Take `CSCC1OC(n2cnc3c(N)ncnc32)C(O)C1O` (stereo not drawn) [5'-METHYLTHIOADENOSINE]: the LC retention time in [1] was 8.59 min; in data set [2], 11.3 min; in [3], 1.29 min; in data set [4], 12.9 min; in data set [5], 13.1 min; in data set [6], 12.6 min. For the same molecule, the LC retention time in [7] is 9.9 min; in [8], 15.4 min; in [9] it was 12.3 min; in data set [10], 1.61 min; in [11] it was 10.1 min; in [12], 8.5 min. For the same molecule, the LC retention time in data set [13] is 9.84 min; in data set [14] it was 13 min; in data set [16], 13.1 min; in [17], 1.23 min; in data set [18], 12.1 min; in [19], 10.7 min.

For `Nc1nc2c(ncn2C2OC3COP(=O)(O)OC3C2O)c(=O)[nH]1` (stereo not drawn) [GUANOSINE 3',5'-CYCLIC MONOPHOSPHATE], the LC retention time was 2.59 min in data set [1]; 7.21 min in data set [2]; 3.76 min in data set [20]; 7.01 min in [4]; 3.22 min in data set [21]; 6.68 min in data set [5]. In addition, the LC retention time in data set [6] is 9.04 min; in data set [22], 7.13 min; in [10] it was 12.3 min; in data set [11], 5.42 min; in [12] it was 2.67 min; in data set [13], 3.77 min. The LC retention time in data set [14] is 7.41 min; in data set [16] it was 2.72 min; in [17] it was 12.3 min; in data set [23], 5.71 min; in data set [24], 1.41 min; in data set [25] it was 7.35 min. Moreover, the results for the LC retention time in data set [26], in data set [19] and in [27] were 6.99 min, 6.2 min and 11.1 min, respectively.
